{"source": "patent US20180118718A1", "about": "“Substituted Quinoxaline Derivatives” (Selvita S.A., priority 2015, published 2018)", "molecular_target": "T1, Human recombinant His-tagged PFKFB3 (Homo sapiens, UniProt Q16875)", "T1 construct": "His; made in house", "T1 sequence (Q16875 whole entry)": "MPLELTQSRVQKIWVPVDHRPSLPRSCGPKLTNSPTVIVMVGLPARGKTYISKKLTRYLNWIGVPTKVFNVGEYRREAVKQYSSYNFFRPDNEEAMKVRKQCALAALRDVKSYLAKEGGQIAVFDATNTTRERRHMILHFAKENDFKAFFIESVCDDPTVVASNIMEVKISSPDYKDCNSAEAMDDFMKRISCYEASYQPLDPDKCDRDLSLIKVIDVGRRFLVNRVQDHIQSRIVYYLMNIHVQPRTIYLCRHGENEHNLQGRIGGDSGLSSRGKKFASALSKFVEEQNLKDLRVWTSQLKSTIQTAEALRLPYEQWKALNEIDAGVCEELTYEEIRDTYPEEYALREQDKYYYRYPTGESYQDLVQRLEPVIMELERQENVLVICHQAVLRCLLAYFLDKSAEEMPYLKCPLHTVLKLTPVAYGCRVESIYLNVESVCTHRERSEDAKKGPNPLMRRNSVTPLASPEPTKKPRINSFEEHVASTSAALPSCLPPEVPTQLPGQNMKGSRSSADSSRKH", "assay": "PFKFB3 IC50 Determination Assay (in vitro kinase assay, modified ADP-Glo system)", "format": "biochemical", "settings": "ATP 20 μM and fructose-6-phosphate 2 μM (Km), 25 nM PFKFB3, 2 h, rt, ADP-Glo luminescence", "procedure,_shortened": "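In-house His-tagged human PFKFB3 phosphorylates fructose-6-phosphate with ATP and substrate at Km; ADP measured by luminescence with 5x-diluted ADP-Glo reagents. Compounds tested at 10 concentrations, routinely 100 μM to 1 nM, in duplicate, 6.7% final DMSO. Data normalized to no-substrate control, expressed as % positive control; IC50 by four-parameter fit.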"}
{"smiles": "Cn1ccc2ccc(-c3cc(Nc4ccccc4S(=O)(=O)NC4CCCOC4)cc4nccnc34)cc21", "note": "(centres unmarked) [Example 209, 2-{[8-(1-Methyl-1H-indol-6-yl)quinoxalin-6-yl]amino}-N-(oxan-3-yl)benzene-1-sulfonamide]", "values": [{"measurement": "IC50", "result": "0.001 to 1", "unit": "µM"}]}
{"smiles": "CS(=O)(=O)c1ccncc1Nc1cc(-c2ccc3nc[nH]c3c2)c2nccnc2c1", "note": "[Example 61, 8-(1H-1,3-Benzodiazol-5-yl)-N-(4-methanesulfonylpyridin-3-yl)quinoxalin-6-amine]", "values": [{"measurement": "IC50", "result": "10 to 100", "unit": "µM"}]}
{"smiles": "CC(=O)Nc1ccc(S(C)(=O)=O)c(Nc2cc(-c3ccc4ccn(C)c4c3)c3nccnc3c2)c1", "note": "[Example 41, N-(4-Methanesulfonyl-3-{[8-(1-methyl-1H-indol-6-yl)quinoxalin-6-yl]amino}phenyl)acetamide]", "values": [{"measurement": "IC50", "result": "1 to 10", "unit": "µM"}]}
{"smiles": "COc1ccc(Cl)c(-c2cc(Nc3cnccc3S(C)(=O)=O)cc3nccnc23)c1", "note": "[Example 5, 8-(2-Chloro-5-methoxyphenyl)-N-(4-methanesulfonylpyridin-3-yl)quinoxalin-6-amine]", "values": [{"measurement": "IC50", "result": "1 to 10", "unit": "µM"}]}
{"smiles": "CNc1ccc(S(C)(=O)=O)c(Nc2cc(-c3ccc4ccn(C)c4c3)c3nccnc3c2)c1", "note": "[Example 57, 4-Methanesulfonyl-N1-methyl-N3-[8-(1-methyl-1H-indol-6-yl)quinoxalin-6-yl]benzene-1,3-diamine]", "values": [{"measurement": "IC50", "result": "0.001 to 1", "unit": "µM"}]}
{"smiles": "Cn1ccc2ccc(-c3cc(Nc4cc(C(N)=O)ccc4S(C)(=O)=O)cc4nccnc34)cc21", "note": "[Example 116, 4-Methanesulfonyl-3-{[8-(1-methyl-1H-indol-6-yl)quinoxalin-6-yl]amino}benzamide]", "values": [{"measurement": "IC50", "result": "0.001 to 1", "unit": "µM"}]}
{"smiles": "Cn1ccc2ccc(-c3cc(Nc4ccncc4C#N)cc4nccnc34)cc21", "note": "[Example 145, 4-{[8-(1-Methyl-1H-indol-6-yl)quinoxalin-6-yl]amino}pyridine-3-carbonitrile]", "values": [{"measurement": "IC50", "result": "1 to 10", "unit": "µM"}]}
{"smiles": "Cn1ccc2ccc(-c3cc(Nc4cccnc4N)cc4nccnc34)cc21", "note": "[Example 17, 3-N-[8-(1-methyl-1H-indol-6-yl)quinoxalin-6-yl]pyridine-2,3-diamine]", "values": [{"measurement": "IC50", "result": "1 to 10", "unit": "µM"}]}
{"smiles": "CS(=O)(=O)c1ccccc1Nc1cc(-c2ccc3sc(N)nc3c2)c2nccnc2c1", "note": "[Example 190, 8-(2-Amino-1,3-benzothiazol-5-yl)-N-(2-methanesulfonylphenyl)quinoxalin-6-amine]", "values": [{"measurement": "IC50", "result": "0.001 to 1", "unit": "µM"}]}
{"smiles": "CN(C)Cc1ccncc1Nc1cc(-c2ccc3ccn(C)c3c2)c2nccnc2c1", "note": "[Example 175, N-{4-[(dimethylamino)methyl]pyridin-3-yl}-8-(1-methyl-1H-indol-6-yl)quinoxalin-6-amine]", "values": [{"measurement": "IC50", "result": "0.001 to 1", "unit": "µM"}]}
{"smiles": "CC(=O)Nc1cc2cc(-c3cc(Nc4cnccc4S(C)(=O)=O)cc4nccnc34)ccc2s1", "note": "[Example 200, N-(5-{7-[(4-Methanesulfonylpyridin-3-yl)amino]quinoxalin-5-yl}-1-benzothiophen-2-yl)acetamide]", "values": [{"measurement": "IC50", "result": "1 to 10", "unit": "µM"}]}
{"smiles": "CCc1cc(CC)cc(-c2cc(Nc3cnccc3S(C)(=O)=O)cc3nccnc23)c1", "note": "[Example 192, 8-(3,5-Diethylphenyl)-N-(4-methanesulfonylpyridin-3-yl)quinoxalin-6-amine]", "values": [{"measurement": "IC50", "result": "1 to 10", "unit": "µM"}]}
{"smiles": "Cc1cc(Br)ccc1-c1cc(Nc2cnccc2S(C)(=O)=O)cc2nccnc12", "note": "[Example 212, 8-(4-Bromo-2-methylphenyl)-N-(4-methanesulfonylpyridin-3-yl)quinoxalin-6-amine]", "values": [{"measurement": "IC50", "result": "0.001 to 1", "unit": "µM"}]}
{"smiles": "Cc1coc2ccc(-c3cc(Nc4cc(N)ccc4S(C)(=O)=O)cc4nccnc34)cc12", "note": "[Example 102, 6-Methanesulfonyl-N1-[8-(3-methyl-1-benzofuran-5-yl)quinoxalin-6-yl]benzene-1,3-diamine]", "values": [{"measurement": "IC50", "result": "0.001 to 1", "unit": "µM"}]}
{"smiles": "Cn1ccc2ccc(-c3cc(Nc4cnccc4-c4nn[nH]n4)cc4nccnc34)cc21", "note": "[Example 68, 8-(1-Methyl-1H-indol-6-yl)-N-[4-(1H-1,2,3,4-tetrazol-5-yl)pyridin-3-yl]quinoxalin-6-amine]", "values": [{"measurement": "IC50", "result": "0.001 to 1", "unit": "µM"}]}
{"smiles": "Cn1ccc2ccc(-c3cc(Nc4cncnc4C(N)=O)cc4nccnc34)cc21", "note": "[Example 149, 5-{[8-(1-methyl-1H-indol-6-yl)quinoxalin-6-yl]amino}pyrimidine-4-carboxamide]", "values": [{"measurement": "IC50", "result": "0.001 to 1", "unit": "µM"}]}
{"smiles": "Cn1ccc2ccc(-c3cc(Nc4cncc5c4OCCN5)cc4nccnc34)cc21", "note": "[Example 84, 8-(1-Methyl-1H-indol-6-yl)-N-{2H,3H,4H-pyrido[4,3-b][1,4]oxazin-8-yl}quinoxalin-6-amine]", "values": [{"measurement": "IC50", "result": "0.001 to 1", "unit": "µM"}]}
{"smiles": "Cn1cc(-c2ccncc2Nc2cc(-c3ccc4c(ccn4C)c3)c3nccnc3c2)cn1", "note": "[Example 31, 8-(1-Methyl-1H-indol-5-yl)-N-[4-(1-methyl-1H-pyrazol-4-yl)pyridin-3-yl]quinoxalin-6-amine]", "values": [{"measurement": "IC50", "result": "10 to 100", "unit": "µM"}]}
{"smiles": "Cn1ccc2ccc(-c3cc(Nc4cccnc4S(C)(=O)=O)cc4nccnc34)cc21", "note": "[Example 6, N-(2-Methanesulfonylpyridin-3-yl)-8-(1-methyl-1H-indol-6-yl)quinoxalin-6-amine]", "values": [{"measurement": "IC50", "result": "0.001 to 1", "unit": "µM"}]}
{"smiles": "Cn1nnc2ccc(-c3cc(Nc4cnccc4S(C)(=O)=O)cc4nccnc34)cc21", "note": "[Example 170, N-(4-Methanesulfonylpyridin-3-yl)-8-(1-methyl-1H-1,2,3-benzotriazol-6-yl)quinoxalin-6-amine]", "values": [{"measurement": "IC50", "result": "10 to 100", "unit": "µM"}]}
{"smiles": "Cn1ccc2ccc(-c3cc(Nc4cc(C(=O)NN)ccc4S(C)(=O)=O)cc4nccnc34)cc21", "note": "[Example 119, 4-Methanesulfonyl-3-{[8-(1-methyl-1H-indol-6-yl)quinoxalin-6-yl]amino}benzohydrazide]", "values": [{"measurement": "IC50", "result": "0.001 to 1", "unit": "µM"}]}
{"smiles": "Cn1ccc2ccc(-c3cc(Nc4ncncc4Br)cc4nccnc34)cc21", "note": "[Example 204, N-(5-Bromopyrimidin-4-yl)-8-(1-methyl-1H-indol-6-yl)quinoxalin-6-amine]", "values": [{"measurement": "IC50", "result": "10 to 100", "unit": "µM"}]}
{"smiles": "CS(=O)(=O)c1ccncc1Nc1cc(-c2ccc(S(F)(F)(F)(F)F)cc2)c2nccnc2c1", "note": "[Example 213, N-(4-Methanesulfonylpyridin-3-yl)-8-[4-(pentafluoro-λ^6-sulfanyl)phenyl]quinoxalin-6-amine]", "values": [{"measurement": "IC50", "result": "10 to 100", "unit": "µM"}]}
{"smiles": "Cc1ccc(C)c(-c2cc(Nc3cnccc3S(C)(=O)=O)cc3nccnc23)c1", "note": "[Example 39, 8-(2,5-Dimethylphenyl)-N-(4-methanesulfonylpyridin-3-yl)quinoxalin-6-amine]", "values": [{"measurement": "IC50", "result": "0.001 to 1", "unit": "µM"}]}
{"smiles": "CS(=O)(=O)c1ccncc1Nc1cc(-c2ccc3nc(N)sc3c2)c2nccnc2c1", "note": "[Example 174, 8-(2-Amino-1,3-benzothiazol-6-yl)-N-(4-methanesulfonylpyridin-3-yl)quinoxalin-6-amine]", "values": [{"measurement": "IC50", "result": "0.001 to 1", "unit": "µM"}]}
{"smiles": "Cn1ccc2cc(-c3cc(Nc4cnccc4C(N)=O)cc4nccnc34)ccc21", "note": "[Example 29, 3-{[8-(1-Methyl-1H-indol-5-yl)quinoxalin-6-yl]amino}pyridine-4-carboxamide]", "values": [{"measurement": "IC50", "result": "1 to 10", "unit": "µM"}]}
{"smiles": "Cn1ccc2ccc(-c3cc(Nc4cc(-n5ccnc5)ccc4S(C)(=O)=O)cc4nccnc34)cc21", "note": "[Example 42, N-[5-(1H-Imidazol-1-yl)-2-methanesulfonylphenyl]-8-(1-methyl-1H-indol-6-yl)quinoxalin-6-amine]", "values": [{"measurement": "IC50", "result": "0.001 to 1", "unit": "µM"}]}
{"smiles": "Cc1cc2ccn(C)c2cc1-c1cc(Nc2cnccc2S(C)(=O)=O)cc2nccnc12", "note": "[Example 195, 8-(1,5-Dimethyl-1H-indol-6-yl)-N-(4-methanesulfonylpyridin-3-yl)quinoxalin-6-amine]", "values": [{"measurement": "IC50", "result": "0.001 to 1", "unit": "µM"}]}
{"smiles": "Cn1ccc2cc(-c3cc(Nc4cnccc4C#N)cc4nccnc34)ccc21", "note": "[Example 28, 3-{[8-(1-Methyl-1H-indol-5-yl)quinoxalin-6-yl]amino}pyridine-4-carbonitrile]", "values": [{"measurement": "IC50", "result": "10 to 100", "unit": "µM"}]}
{"smiles": "Cc1ccc(O)c(-c2cc(Nc3cnccc3S(C)(=O)=O)cc3nccnc23)c1", "note": "[Example 67, 2-{7-[(4-Methanesulfonylpyridin-3-yl)amino]quinoxalin-5-yl}-4-methylphenol]", "values": [{"measurement": "IC50", "result": "1 to 10", "unit": "µM"}]}
{"smiles": "Cn1ccc2ccc(-c3cc(Nc4c[n+]([O-])ccc4S(C)(=O)=O)cc4nccnc34)cc21", "note": "[Example 44, 4-Methanesulfonyl-3-{[8-(1-methyl-1H-indol-6-yl)quinoxalin-6-yl]amino}pyridin-1-ium-1-olate]", "values": [{"measurement": "IC50", "result": "0.001 to 1", "unit": "µM"}]}
{"smiles": "CS(=O)(=O)c1ccncc1Nc1cc(-c2ccc3sncc3c2)c2nccnc2c1", "note": "[Example 161, 8-(1,2-Benzothiazol-5-yl)-N-(4-methanesulfonylpyridin-3-yl)quinoxalin-6-amine]", "values": [{"measurement": "IC50", "result": "1 to 10", "unit": "µM"}]}
